The structures appear in SMILES notation. pIC50: −log10 of the molar value.

The subject of one assay is Mice. Put plainly: Observed anticoagulant activity (bleeding) in treated mice. Type of assay: in vivo. As to conditions: single injection 15 μg/mouse/day intraperitoneally in 10% ethanol in saline. As for the experimental part:
Mice were treated with one compound of the present invention (4E)-6-(1,4-dihydro-2-methyl-1,4-dioxonaphthalen-3-yl)-4-methylhex-4-enoic acid (VIII) [also called NaQuinate herein] in the form of a single injection (15 μg/mouse/day) administered in 10% ethanol in saline injections intraperitoneally. Control mice received the carrier but not the NaQuinate active component.
In the case of `CC1=C(C/C=C(\C)CCC(=O)O)C(=O)c2ccccc2C1=O` [NaQuinate (VIII), (4E)-6-(1,4-dihydro-2-methyl-1,4-dioxonaphthalen-3-yl)-4-methylhex-4-enoic acid], the “bleeding compared with mice not treated (anticoagulant effect)” value was “bleed out much more profusely”.

A further assay addresses T1, recombinant human γ-carboxylase (Homo sapiens, UniProt P38435).
T1 construct: made in house; host or cells: Trichoplusia ni High Five cells (microsomes)
T1 sequence (P38435 1-758): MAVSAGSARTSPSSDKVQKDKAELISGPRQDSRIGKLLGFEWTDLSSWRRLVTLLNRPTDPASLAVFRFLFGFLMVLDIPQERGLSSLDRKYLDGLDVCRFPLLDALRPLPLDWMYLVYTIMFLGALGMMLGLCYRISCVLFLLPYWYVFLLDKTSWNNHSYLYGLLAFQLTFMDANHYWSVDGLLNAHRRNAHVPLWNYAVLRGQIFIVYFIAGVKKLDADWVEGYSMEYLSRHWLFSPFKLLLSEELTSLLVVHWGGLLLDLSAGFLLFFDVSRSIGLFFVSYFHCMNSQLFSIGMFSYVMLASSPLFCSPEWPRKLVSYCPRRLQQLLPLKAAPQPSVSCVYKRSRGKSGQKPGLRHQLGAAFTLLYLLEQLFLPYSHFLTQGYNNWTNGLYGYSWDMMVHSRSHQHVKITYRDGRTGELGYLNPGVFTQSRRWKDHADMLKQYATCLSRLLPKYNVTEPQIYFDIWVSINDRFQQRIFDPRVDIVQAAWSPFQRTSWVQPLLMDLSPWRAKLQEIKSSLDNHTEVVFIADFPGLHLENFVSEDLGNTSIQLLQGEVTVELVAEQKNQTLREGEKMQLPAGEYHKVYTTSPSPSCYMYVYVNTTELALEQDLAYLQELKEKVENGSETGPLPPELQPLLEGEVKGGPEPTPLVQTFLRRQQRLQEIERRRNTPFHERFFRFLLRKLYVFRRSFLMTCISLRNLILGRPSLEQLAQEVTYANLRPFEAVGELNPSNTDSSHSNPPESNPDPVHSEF
Description: Inhibition of recombinant human gamma-carboxylase (14CO2 incorporation, microsomes from High Five cells). Type of assay: biochemical. As to conditions: in the presence of 220 μM vitamin K1 hydroquinone; compounds reduced to hydroquinone forms; n=1; read-out: IC50 against 220 μM vitamin K1. On the procedure:
The compounds to be tested were reduced to their hydroquinone forms by the addition of 0.2 M DTT to a solution of the compounds in DMSO (giving a final v/v ratio of 1:3 DTT:DMSO) and overnight incubation in a water bath (37° C.).
In this assay a different microsomal preparation was used than the one described above. This microsomal preparation consists of microsomes prepared from Trichoplusia ni High Five cells that had had the cDNA for the human γ-carboxylase incorporated into their DNA. These microsomes were taken from stores that had been prepared as described by Houben, R. J., D. Jin, et al. (1999). “Osteocalcin binds tightly to the gamma-glutamylcarboxylase at a site distinct from that of the other known vitamin K-dependent proteins.” Biochem J 341 (Pt 2): 265-9.
Standard reaction mixtures contained 5 μl of microsomal preparation, 5 μl of 500 μM decarboxylated osteocalcin (d-OC) (except for the negative control tube), 25 μl of saturated ammonium sulphate solution, 5 μl of 5% PC/CHAPS. In addition to this, 1:3 (v/v) DMSO: 0.2 M DTT was added to the tubes (to take into account the fact that the compounds were dissolved in 1:3 DMSO: 0.2 M DTT) to give a total volume of 40 μl DMSO: 0.2 M DTT per tube. A solution of Buffer D was added to give all final tubes a uniform volume of 125 μl. The experiment was initiated by the addition of 10 μl of a 1:1 (v/v) mixture of vitamin K hydroquinone (final concentration of 220 μM) and NaH^14CO3 (final radioactivity of 5 μCi) to each tube, followed by a range of concentrations of the compounds.
For orientation: pIC50 means the IC50 on a negative log10 scale, so that one unit is a factor of ten. As to `COC(=O)CCC(C)=CCC1=C(C)C(=O)c2ccccc2C1=O` [NaQuinate-Me (VII)], the pIC50 was 3.45.
With `CC1=C(C/C=C(\C)CCC(=O)O)C(=O)c2ccccc2C1=O` [NaQuinate (VIII), (4E)-6-(1,4-dihydro-2-methyl-1,4-dioxonaphthalen-3-yl)-4-methylhex-4-enoic acid], the pIC50 was 3.82.
Still for that read-out and setting: then `COC(=O)CC/C(C)=C/CC1=C(C)C(=O)C(OC)=C(OC)C1=O` [QCAT-Me (XVIII)], with 3.27; and `CC1=CC(=O)c2ccccc2C1=O` [Vitamin K3 (III), menadione, reference compound], with 3.34; and `CC1=C(C/C=C(\C)C(=O)O)C(=O)c2ccccc2C1=O` [KCAT-5C (XIV), (2E)-4-(1,4-dihydro-2-methyl-1,4-dioxonaphthalen-3-yl)-2-methylbut-2-enoic acid], with 3.47.
On the same count and under the same terms, then `COC(=O)C(C)CCC1=C(C)C(=O)c2ccccc2C1=O` (stereo not shown) [KCAT-5C-Me (XIX)], with 3.29.

The values above are taken from US20120259007A1, “ANTICOAGULANT COMPOUNDS AND THEIR USE” (HAOMA MEDICA LIMITED, priority 2009, published 2012).
